Test results taken from patent US20190297888A1, “FUNGICIDAL COMPOUNDS AND MIXTURES FOR FUNGAL CONTROL IN CEREALS” (Dow AgroSciences LLC, priority 2016, published 2019).

Assays:
[1] = tested on: Puccinia triticina (PUCCRT); assay: Field assessment of Compound I and penthiopyrad on brown rust of wheat (AUDPC % control); type: in vivo; conditions: AUDPC-based, 2 field trials
Text: (§1) Treatments consisting of the compound of Formula I and fungicide compound penthiopyrad were applied either using individually or as a two-way mixture of penthiopyrad with the compound of Formula I. The compound of Formula I was applied with Agnique BP-420 (50% w/w at 0.3% v/v) at 75 and 150 g ai/ha and Penthiopyrad (Vertisan) was applied at 125 and 200 g ai/ha. Commercial standards used in the studies were Fluxapyroxad (Imtrex), applied at 100 g ai/ha, and Metconazole+Fluxapyroxad (Librax), applied at 161 g ai/ha.
Fungicidal treatments containing the compound of Formula I and penthiopyrad, either individually or as a two-way mixture, were assessed against brown rust of wheat (PUCCRT) in two separate field trials. In the first trial, fungicidal treatments were applied at B37-39 (protectant, approximately 0% infection at application) growth stages of wheat (TRZAW, MV Vanek variety) under natural infection of brown rust. The treatment was part of an experimental trial designed as a randomized complete block with four replications and a plot of approximately 2×3 m. Fungicidal treatments were applied at a water volume of 200 L/ha, using a backpack plot sprayer with a TEEJET QJ90-2XTT110 015 Nozzle.
In the second trial, fungicidal treatments containing the compound of Formula I and penthiopyrad, either individually or as a two-way mixture, were applied at B33 (curative, approximately 6.6% infection at application) growth stage of wheat (TRZAW, Miradoux variety) under natural infection of brown rust. The treatments were part of an experimental trial designed as a randomized complete block with four replications and a plot of approximately 2×3 m. Fungicidal treatments were applied at a water volume of 200 L/ha, using a backpack plot sprayer with a HARDI MD 110-02 Nozzle.
(§2) Disease severity (percentage of visual diseased foliage on whole plot or leaves) in both field trials was recorded following EPPO PP1/26 guideline prescriptions. Area under the disease progress curve (AUDPC) was calculated for each plot in both trials using the sets of recorded severity data. Relative AUDPC (% control based on AUDPC) was calculated as percent of the nontreated control. Final results for the control of brown rust of wheat by the compound of Formula I, penthiopyrad and mixtures are reported as an average of the relative AUDPC calculated over all […] field trials. Statistical analysis was done according to ANOVA and Tukey's test (p=0.10).

[2] = tested on: Puccinia striiformis (PUCCST); assay: Field assessment of Compound I and penthiopyrad on yellow rust of wheat (AUDPC % control); type: in vivo; conditions: AUDPC-based, 2 field trials
Text: as §1
Fungicidal treatments containing the compound of Formula I and penthiopyrad, either individually or as a two-way mixture, were assessed against yellow rust of wheat (PUCCST) in two separate field trials. In the first trial, fungicidal treatments were applied twice at B31-32 (early curative, 2% infection at application on L3) and B37-39 (0% infection at application on L) growth stages of winter wheat (TRZAW, Fairplay variety). The treatments were part of an experimental trial designed as a randomized complete block with four replications and a plot of approximately 1×6 m. Treatments were applied at water volume of 200 L/ha, using a backpack plot sprayer (BKPCKENG, F110-015 Hardi (3) Flat fan nozzle) and pressurized at 200 kPa.
In the second trial, fungicidal treatments containing the compound of Formula I and penthiopyrad, either individually or as a two-way mixture, were applied twice at B31-32 (early curative, 5% infection on L5 at application) and B37-39 (early curative, 5% infection on L1 and L2 at application) growth stages of wheat (TRZAW, Torch variety). The treatment was part of an experimental trial designed as a randomized complete block with four replications and a plot of approximately 2×3 m. Treatments were applied at water volume of 200 L/ha, using a backpack precision plot sprayer (BKCKAIR, F110-03 Hypro (4) Flat fan nozzle) and pressurized at 300 kPa.
as §2, with “yellow” for “brown”

N#Cc1ccc(Oc2ccc(C(F)(F)C(O)(Cn3ncnc3S)c3ccc(F)cc3F)nc2)cc1 (stereo not shown) [Compound I, 4-((6-(2-(2,4-difluorophenyl)-1,1-difluoro-2-hydroxy-3-(5-mercapto-1H-1,2,4-triazol-1-yl)propyl)pyridin-3-yl)oxy)benzonitrile]
PUCCRT % Control ([1]; rate 75 g ai/ha): 93.5%
PUCCRT % Control ([1]; rate 150 g ai/ha): 94.6%
PUCCST % Control ([2]; rate 75 g ai/ha): 72.8%
PUCCST % Control ([2]; rate 150 g ai/ha): 76.4%
